# In patent US12227500B2, “Substituted pyrrolo[2,3-b]pyridines for suppressing toxic endoplasmic reticulum stress” (THE TRUSTEES OF COLUMBIA UNIVERSITY IN THE CITY OF NEW YORK, priority 2018, dated 2025):
# Columns and labels:
# Test in all cases: Radiolabeled ATP kinase assay, panel of 371 kinases (Table S6)
# Assay type in all cases: biochemical
# [1] = biological target: T1, panel of 371 human kinases (Homo sapiens, UniProt Q8IVH8); settings: for remaining activity at 0.1 µM: GLK/MAP4K3, 10 μM ATP, read-out: % Enzyme Activity (relative to DMSO controls)
# T1 construct: purchased Reaction Biology Corp
# T1 sequence (Q8IVH8 1-894): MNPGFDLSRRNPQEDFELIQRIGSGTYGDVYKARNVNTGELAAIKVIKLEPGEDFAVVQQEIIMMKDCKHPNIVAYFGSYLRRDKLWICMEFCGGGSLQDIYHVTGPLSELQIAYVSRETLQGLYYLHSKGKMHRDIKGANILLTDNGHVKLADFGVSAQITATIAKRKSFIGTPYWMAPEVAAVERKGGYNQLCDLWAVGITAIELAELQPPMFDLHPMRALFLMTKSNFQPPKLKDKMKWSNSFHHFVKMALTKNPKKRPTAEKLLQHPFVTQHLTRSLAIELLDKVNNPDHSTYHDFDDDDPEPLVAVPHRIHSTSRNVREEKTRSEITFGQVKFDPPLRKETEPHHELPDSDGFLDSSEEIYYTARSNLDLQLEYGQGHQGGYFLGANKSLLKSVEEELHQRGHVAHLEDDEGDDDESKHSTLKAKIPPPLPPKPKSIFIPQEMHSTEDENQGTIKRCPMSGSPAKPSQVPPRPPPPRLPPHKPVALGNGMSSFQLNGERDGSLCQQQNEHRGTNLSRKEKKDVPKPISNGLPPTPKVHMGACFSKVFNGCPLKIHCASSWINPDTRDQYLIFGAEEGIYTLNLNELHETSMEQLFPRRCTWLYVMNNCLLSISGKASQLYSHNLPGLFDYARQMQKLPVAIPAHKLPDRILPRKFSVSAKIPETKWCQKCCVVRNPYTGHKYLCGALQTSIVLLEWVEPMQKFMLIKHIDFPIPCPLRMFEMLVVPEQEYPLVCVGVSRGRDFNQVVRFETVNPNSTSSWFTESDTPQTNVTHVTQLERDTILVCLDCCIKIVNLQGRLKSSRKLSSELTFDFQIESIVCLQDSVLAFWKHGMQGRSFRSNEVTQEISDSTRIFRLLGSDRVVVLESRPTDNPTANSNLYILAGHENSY
# From the text: (§1) ; FIG. 38C). […]. Further targeted analyses, such as genetic knock-down or knock-out, may be warranted to parse the role of these additional kinases in our model of neurodegeneration.
# [2] = biological target: T2, panel of 371 human kinases (Homo sapiens, UniProt P37173); settings: TGFBR2; 0.1 μM; 10 μM ATP; read-out: % Enzyme Activity (relative to DMSO controls)
# T2 construct: purchased Reaction Biology Corp
# T2 sequence (P37173 23-567): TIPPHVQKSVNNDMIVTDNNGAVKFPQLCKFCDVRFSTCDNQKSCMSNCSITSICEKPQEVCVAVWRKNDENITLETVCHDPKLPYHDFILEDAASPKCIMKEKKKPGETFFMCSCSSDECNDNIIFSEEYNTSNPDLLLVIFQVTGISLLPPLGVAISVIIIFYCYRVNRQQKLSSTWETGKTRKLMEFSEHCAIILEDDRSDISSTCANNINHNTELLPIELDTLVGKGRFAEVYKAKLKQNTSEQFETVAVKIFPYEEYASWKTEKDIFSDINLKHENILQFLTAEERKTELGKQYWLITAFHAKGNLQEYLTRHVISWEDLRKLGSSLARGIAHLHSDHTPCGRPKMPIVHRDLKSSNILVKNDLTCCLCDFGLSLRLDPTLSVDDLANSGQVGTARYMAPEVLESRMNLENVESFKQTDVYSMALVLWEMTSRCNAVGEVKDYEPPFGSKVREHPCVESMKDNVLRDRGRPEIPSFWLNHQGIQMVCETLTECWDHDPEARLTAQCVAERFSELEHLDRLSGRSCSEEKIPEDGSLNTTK
# From the text: as §1
# [3] = biological target: T3, panel of 371 human kinases (Homo sapiens, UniProt P30530); settings: AXL; 0.1 μM; 10 μM ATP; read-out: % Enzyme Activity (relative to DMSO controls)
# T3 construct: purchased Reaction Biology Corp
# From the text: as §1
# [4] = biological target: T4, panel of 371 human kinases (Homo sapiens, UniProt P78368); settings: CK1g2; 0.1 μM; 10 μM ATP; read-out: % Enzyme Activity (relative to DMSO controls)
# T4 construct: purchased Reaction Biology Corp
# T4 sequence (P78368 whole entry): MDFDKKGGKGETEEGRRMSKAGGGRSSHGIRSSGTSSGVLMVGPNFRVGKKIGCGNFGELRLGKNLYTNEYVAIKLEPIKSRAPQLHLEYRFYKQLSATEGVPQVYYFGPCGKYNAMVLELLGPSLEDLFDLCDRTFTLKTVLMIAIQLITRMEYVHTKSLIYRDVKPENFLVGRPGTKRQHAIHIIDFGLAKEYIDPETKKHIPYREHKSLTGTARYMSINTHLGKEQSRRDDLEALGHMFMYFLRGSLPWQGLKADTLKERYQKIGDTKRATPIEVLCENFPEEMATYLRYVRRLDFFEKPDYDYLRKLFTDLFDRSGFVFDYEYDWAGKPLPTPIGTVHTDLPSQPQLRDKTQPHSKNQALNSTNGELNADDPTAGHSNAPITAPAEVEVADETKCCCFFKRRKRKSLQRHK
# From the text: as §1
# [5] = biological target: T5, panel of 371 human kinases (Homo sapiens, UniProt P10721); settings: c-Kit; 0.1 μM; 10 μM ATP; read-out: % Enzyme Activity (relative to DMSO controls)
# T5 construct: purchased Reaction Biology Corp
# From the text: as §1
# [6] = biological target: T6, panel of 371 human kinases (Homo sapiens, UniProt P36894); settings: ALK1/BMPR1A; 0.1 μM; 10 μM ATP; read-out: % Enzyme Activity (relative to DMSO controls)
# T6 construct: purchased Reaction Biology Corp
# T6 sequence (P36894 24-532): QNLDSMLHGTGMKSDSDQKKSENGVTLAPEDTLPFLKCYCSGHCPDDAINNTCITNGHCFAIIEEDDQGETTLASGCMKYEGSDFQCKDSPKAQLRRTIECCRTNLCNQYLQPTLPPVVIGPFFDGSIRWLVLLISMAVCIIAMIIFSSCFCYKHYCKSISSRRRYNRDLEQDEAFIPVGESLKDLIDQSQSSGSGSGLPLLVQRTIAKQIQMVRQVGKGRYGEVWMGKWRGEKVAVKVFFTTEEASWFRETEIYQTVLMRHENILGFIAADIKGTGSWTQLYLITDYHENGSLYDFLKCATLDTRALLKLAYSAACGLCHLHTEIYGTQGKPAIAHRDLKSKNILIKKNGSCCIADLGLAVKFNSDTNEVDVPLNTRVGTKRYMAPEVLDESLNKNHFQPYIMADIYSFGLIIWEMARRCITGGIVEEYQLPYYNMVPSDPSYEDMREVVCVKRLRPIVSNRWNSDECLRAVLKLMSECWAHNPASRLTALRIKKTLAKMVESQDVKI
# From the text: as §1
# [7] = biological target: T7, panel of 371 human kinases (Homo sapiens, UniProt Q9P286); settings: PAK5; 0.1 μM; 10 μM ATP; read-out: % Enzyme Activity (relative to DMSO controls)
# T7 construct: purchased Reaction Biology Corp
# T7 sequence (Q9P286 whole entry): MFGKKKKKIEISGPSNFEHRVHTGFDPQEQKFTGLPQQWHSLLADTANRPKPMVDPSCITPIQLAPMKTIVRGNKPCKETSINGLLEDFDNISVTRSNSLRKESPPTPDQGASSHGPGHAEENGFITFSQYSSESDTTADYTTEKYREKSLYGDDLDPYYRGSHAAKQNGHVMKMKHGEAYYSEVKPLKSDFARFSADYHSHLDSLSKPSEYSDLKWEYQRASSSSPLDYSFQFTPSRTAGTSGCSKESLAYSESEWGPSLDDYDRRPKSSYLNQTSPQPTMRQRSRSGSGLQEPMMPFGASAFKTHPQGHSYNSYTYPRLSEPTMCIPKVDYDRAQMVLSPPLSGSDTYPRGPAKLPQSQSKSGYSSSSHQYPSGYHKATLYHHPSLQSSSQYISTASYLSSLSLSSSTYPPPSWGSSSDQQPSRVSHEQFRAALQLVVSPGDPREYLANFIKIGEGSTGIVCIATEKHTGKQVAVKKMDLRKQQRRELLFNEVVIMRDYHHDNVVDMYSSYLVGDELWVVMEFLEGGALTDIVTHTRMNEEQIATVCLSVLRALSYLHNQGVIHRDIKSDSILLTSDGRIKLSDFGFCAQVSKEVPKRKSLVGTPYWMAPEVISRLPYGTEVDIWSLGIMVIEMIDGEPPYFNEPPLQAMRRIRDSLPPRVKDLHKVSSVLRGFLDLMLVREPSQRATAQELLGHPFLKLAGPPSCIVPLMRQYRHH
# From the text: as §1
# [8] = biological target: T8, panel of 371 human kinases (Homo sapiens, UniProt Q5S007); settings: LRRK2; 0.1 μM; 10 μM ATP; read-out: % Enzyme Activity (relative to DMSO controls)
# T8 construct: purchased Reaction Biology Corp
# From the text: as §1
# [9] = biological target: T9, panel of 371 human kinases (Homo sapiens, UniProt Q96S53); settings: TESK2; 0.1 μM; 10 μM ATP; read-out: % Enzyme Activity (relative to DMSO controls)
# T9 construct: purchased Reaction Biology Corp
# From the text: as §1
# [10] = biological target: T10, panel of 371 human kinases (Homo sapiens, UniProt P36888); settings: FLT3; 0.1 μM; 10 μM ATP; read-out: % Enzyme Activity (relative to DMSO controls)
# T10 construct: purchased Reaction Biology Corp
# T10 sequence (P36888 27-993): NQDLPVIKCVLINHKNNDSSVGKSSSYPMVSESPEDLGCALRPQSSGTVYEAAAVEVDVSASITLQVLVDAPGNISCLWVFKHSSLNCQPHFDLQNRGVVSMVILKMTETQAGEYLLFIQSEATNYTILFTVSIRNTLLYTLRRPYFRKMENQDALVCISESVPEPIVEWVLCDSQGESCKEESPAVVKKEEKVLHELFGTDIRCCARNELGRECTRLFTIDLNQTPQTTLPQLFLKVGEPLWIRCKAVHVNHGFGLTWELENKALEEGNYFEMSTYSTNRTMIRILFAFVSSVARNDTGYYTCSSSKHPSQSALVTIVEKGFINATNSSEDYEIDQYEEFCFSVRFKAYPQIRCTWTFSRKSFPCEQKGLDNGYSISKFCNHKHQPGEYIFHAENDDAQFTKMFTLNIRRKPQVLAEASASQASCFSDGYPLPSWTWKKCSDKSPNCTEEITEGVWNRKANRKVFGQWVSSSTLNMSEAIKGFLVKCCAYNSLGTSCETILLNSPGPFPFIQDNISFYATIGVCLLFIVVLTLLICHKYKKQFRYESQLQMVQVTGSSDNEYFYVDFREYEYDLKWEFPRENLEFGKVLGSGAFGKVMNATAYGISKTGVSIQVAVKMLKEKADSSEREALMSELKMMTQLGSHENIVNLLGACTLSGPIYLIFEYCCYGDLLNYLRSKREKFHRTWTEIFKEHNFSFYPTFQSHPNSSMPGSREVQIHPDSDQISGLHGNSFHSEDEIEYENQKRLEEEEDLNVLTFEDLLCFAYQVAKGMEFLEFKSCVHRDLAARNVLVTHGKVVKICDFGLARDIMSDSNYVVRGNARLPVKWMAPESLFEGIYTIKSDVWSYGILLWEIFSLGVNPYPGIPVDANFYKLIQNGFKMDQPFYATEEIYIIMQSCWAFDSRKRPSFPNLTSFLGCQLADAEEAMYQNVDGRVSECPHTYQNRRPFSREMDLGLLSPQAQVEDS
# From the text: as §1
# [11] = biological target: T11, panel of 371 human kinases (Homo sapiens, UniProt Q96PF2); settings: TSSK2; 0.1 μM; 10 μM ATP; read-out: % Enzyme Activity (relative to DMSO controls)
# T11 construct: purchased Reaction Biology Corp
# From the text: as §1
# [12] = biological target: T12, panel of 371 human kinases (Homo sapiens, UniProt P15056); settings: BRAF; 0.1 μM; 10 μM ATP; read-out: % Enzyme Activity (relative to DMSO controls)
# T12 construct: purchased Reaction Biology Corp
# From the text: as §1
# [13] = biological target: T13, panel of 371 human kinases (Homo sapiens, UniProt P54762); settings: EPHB1; 0.1 μM; 10 μM ATP; read-out: % Enzyme Activity (relative to DMSO controls)
# T13 construct: purchased Reaction Biology Corp
# T13 sequence (P54762 18-984): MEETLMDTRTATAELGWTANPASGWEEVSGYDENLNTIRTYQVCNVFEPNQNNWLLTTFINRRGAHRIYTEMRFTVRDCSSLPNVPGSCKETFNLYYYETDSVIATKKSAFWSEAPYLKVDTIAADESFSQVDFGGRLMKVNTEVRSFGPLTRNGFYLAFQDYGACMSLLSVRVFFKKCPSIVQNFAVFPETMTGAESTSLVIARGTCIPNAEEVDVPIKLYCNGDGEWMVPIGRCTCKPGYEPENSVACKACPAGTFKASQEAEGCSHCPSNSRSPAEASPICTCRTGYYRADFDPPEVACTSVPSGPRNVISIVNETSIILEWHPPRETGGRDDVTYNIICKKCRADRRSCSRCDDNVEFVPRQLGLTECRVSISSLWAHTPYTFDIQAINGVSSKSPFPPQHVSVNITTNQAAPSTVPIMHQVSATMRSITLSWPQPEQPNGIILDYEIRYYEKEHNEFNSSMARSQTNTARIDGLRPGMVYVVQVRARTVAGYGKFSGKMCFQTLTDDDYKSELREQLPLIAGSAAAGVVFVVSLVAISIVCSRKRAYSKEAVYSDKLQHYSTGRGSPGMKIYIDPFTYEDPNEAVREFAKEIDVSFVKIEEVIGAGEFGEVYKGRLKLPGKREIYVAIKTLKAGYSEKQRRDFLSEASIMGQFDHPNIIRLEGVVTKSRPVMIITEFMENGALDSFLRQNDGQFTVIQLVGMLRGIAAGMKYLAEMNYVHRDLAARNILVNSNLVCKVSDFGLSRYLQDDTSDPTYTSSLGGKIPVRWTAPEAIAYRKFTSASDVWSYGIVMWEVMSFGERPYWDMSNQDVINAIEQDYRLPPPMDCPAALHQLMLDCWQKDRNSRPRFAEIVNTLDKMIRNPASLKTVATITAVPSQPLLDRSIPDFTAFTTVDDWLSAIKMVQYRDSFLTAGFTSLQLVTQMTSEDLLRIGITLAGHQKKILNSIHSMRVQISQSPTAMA
# From the text: as §1
# [14] = biological target: T14, panel of 371 human kinases (Homo sapiens, UniProt P17252); settings: PKCa; 0.1 μM; 10 μM ATP; read-out: % Enzyme Activity (relative to DMSO controls)
# T14 construct: purchased Reaction Biology Corp
# From the text: as §1
# [15] = biological target: T15, panel of 371 human kinases (Homo sapiens, UniProt Q6IQ55); settings: TTBK2; 0.1 μM; 10 μM ATP; read-out: % Enzyme Activity (relative to DMSO controls)
# T15 construct: purchased Reaction Biology Corp
# From the text: as §1
# [16] = biological target: T16, panel of 371 human kinases (Homo sapiens, UniProt Q15139); settings: PKCmu/PRKD1; 0.1 μM; 10 μM ATP; read-out: % Enzyme Activity (relative to DMSO controls)
# T16 construct: purchased Reaction Biology Corp
# From the text: as §1
# [17] = biological target: T17, panel of 371 human kinases (Homo sapiens, UniProt P41240); settings: CSK; 0.1 μM; 10 μM ATP; read-out: % Enzyme Activity (relative to DMSO controls)
# T17 construct: purchased Reaction Biology Corp
# T17 sequence (P41240 whole entry): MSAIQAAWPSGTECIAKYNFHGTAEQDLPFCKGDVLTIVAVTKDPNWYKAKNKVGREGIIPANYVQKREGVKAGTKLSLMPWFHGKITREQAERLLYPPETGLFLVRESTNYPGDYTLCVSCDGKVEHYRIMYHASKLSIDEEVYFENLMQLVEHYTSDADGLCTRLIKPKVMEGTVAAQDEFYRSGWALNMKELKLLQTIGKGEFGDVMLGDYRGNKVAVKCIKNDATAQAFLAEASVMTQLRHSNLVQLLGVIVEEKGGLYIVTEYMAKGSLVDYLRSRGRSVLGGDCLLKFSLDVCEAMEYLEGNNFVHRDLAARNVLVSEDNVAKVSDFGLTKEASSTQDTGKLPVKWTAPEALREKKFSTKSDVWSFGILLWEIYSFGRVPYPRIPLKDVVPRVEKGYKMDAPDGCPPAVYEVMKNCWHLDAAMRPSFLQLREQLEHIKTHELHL
# From the text: as §1
# [18] = biological target: T18, panel of 371 human kinases (Homo sapiens, UniProt Q15208); settings: STK38/NDR1; 0.1 μM; 10 μM ATP; read-out: % Enzyme Activity (relative to DMSO controls)
# T18 construct: purchased Reaction Biology Corp
# T18 sequence (Q15208 whole entry): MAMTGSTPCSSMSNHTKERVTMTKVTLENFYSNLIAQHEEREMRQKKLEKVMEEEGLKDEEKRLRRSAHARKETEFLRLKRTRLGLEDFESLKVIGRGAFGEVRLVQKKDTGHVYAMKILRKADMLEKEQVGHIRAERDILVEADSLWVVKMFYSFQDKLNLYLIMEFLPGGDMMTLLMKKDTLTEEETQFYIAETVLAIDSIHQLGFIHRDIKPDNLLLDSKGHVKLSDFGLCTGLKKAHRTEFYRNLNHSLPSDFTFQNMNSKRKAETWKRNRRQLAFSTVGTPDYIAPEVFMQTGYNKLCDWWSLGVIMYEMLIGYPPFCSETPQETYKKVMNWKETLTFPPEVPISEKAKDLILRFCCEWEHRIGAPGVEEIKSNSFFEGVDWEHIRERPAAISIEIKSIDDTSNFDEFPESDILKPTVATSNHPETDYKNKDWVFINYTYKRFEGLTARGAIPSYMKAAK
# From the text: as §1
SMILES,remaining activity at 0.1 µM [1],remaining activity at 0.1 µM [2],remaining activity at 0.1 µM [3],remaining activity at 0.1 µM [4],remaining activity at 0.1 µM [5],remaining activity at 0.1 µM [6],remaining activity at 0.1 µM [7],remaining activity at 0.1 µM [8],remaining activity at 0.1 µM [9],remaining activity at 0.1 µM [10],remaining activity at 0.1 µM [11],remaining activity at 0.1 µM [12],remaining activity at 0.1 µM [13],remaining activity at 0.1 µM [14],remaining activity at 0.1 µM [15],remaining activity at 0.1 µM [16],remaining activity at 0.1 µM [17],remaining activity at 0.1 µM [18],fold change in GLK activity following 12k exposure relative to 1 ([1]; 0.025 μM)
"CN1CCN(Cc2ccc(-c3cnc4[nH]cc(-c5ccc6[nH]ccc6c5)c4c3)cc2)CC1 [Compound 1, 3-(1H-Indol-5-yl)-5-(4-((4-methylpiperazin-1-yl)methyl)phenyl)-1H-pyrrolo[2,3-b]pyridine, reference compound]",49.2%,106%,35.8%,102%,100%,97%,113%,58.8%,112%,22.3%,115%,105%,83%,91.4%,101%,24.4%,87.5%,88.1%,–
"OCCN1CCN(Cc2ccc(-c3cnc4[nH]cc(-c5cccc(Cl)c5)c4c3)cc2)CC1 [Compound 12k, 2-(4-(4-(3-(3-Chlorophenyl)-1H-pyrrolo[2,3-b]pyridin-5-yl)benzyl)piperazin-1-yl)ethan-1-ol]",7.18%,88%,39.8%,102%,89.8%,96.8%,99%,17%,92.7%,29.4%,108%,98%,98.3%,98.5%,103%,3.95%,90.8%,71.9%,6.84 fold
